From a melting point compilation (Tetko et al.)

With `Cc1cccc(N2N=C(C(=O)O)CCC2=O)c1` as the molecule, how does the melting point read?
Its melting point is 152 to 154 °C.

With `CC(C)(C)OC(=O)N1CCN(S(=O)(=O)C2CNC2)CC1` as the molecule, how does the melting point read?
Its melting point is 132 to 134 °C.

Which melting point does the source give for `CN(C)c1nc(=N)cc[nH]1` here?
The melting point was 149 to 151 °C.

For `CNc1nc2ccccc2[nH]1`, which melting point is on record?
The melting point was 190 to 192 °C.

For `O=C(O)C=Cc1ccc([N+](=O)[O-])o1`, which melting point is on record?
Its melting point is 230 to 232 °C.

With `CCn1nc(C)c(C(=O)O)c1Cl` as the molecule, how does the melting point read?
Its melting point is 129 to 131 °C.

For `O=Cc1cc(Br)c2c(c1)OCCO2`, which melting point is on record?
Its melting point is 99 to 101 °C.

Which melting point does the source give for `Nc1ccc(SCc2ccccc2)cn1` here?
Its melting point is 94 to 96 °C.

For `O=C(CCl)/N=c1\sccn1Cc1ccccc1Cl`, which melting point is on record?
Its melting point is 82 to 84 °C.

For `CC(C)C(=O)c1ccc2[nH]c(=O)oc2c1`, which melting point is on record?
The melting point was 188 to 190 °C.

With `Cc1cc(=O)n2nc(CCl)sc2n1` as the molecule, how does the melting point read?
The melting point was 183 to 185 °C.

With `COc1ccc(-c2cc(N)on2)c(OC)c1OC` as the molecule, how does the melting point read?
The melting point was 161 to 163 °C.

Which melting point does the source give for `COc1cc(OC)c(NC(=O)c2cc3ccccc3cc2O)cc1Cl` here?
Its melting point is 199 to 201 °C.

For `Nc1nncc(-c2cc(F)ccc2F)n1`, which melting point is on record?
The melting point was 239 to 241 °C.

Which melting point does the source give for `CC(C)C(Br)C(=O)Nc1ccccc1F` (configuration not stated) here?
Its melting point is 98 to 100 °C.

For `O=Cc1cnc2ccc(Br)cn12`, which melting point is on record?
The melting point was 162 to 164 °C.

Which melting point does the source give for `COC(=O)/C=C/c1cc(OC)c(OC)c(S(=O)(=O)Cl)c1` here?
Its melting point is 160 to 162 °C.

With `CNc1cccc2ncccc12` as the molecule, how does the melting point read?
The melting point was 125 to 127 °C.

Which melting point does the source give for `CC(C)n1ncc2c(C(=O)O)cc(-c3ccco3)nc21` here?
Its melting point is 275 to 277 °C.

With `NS(=O)(=O)c1ccc(C(=O)O)s1` as the molecule, how does the melting point read?
Its melting point is 229 to 231 °C.

Which melting point does the source give for `Nc1nc(=O)cc[nH]1` here?
Its melting point is 268 to 272 °C.

With `NS(=O)(=O)c1ccc(Cl)c2ccccc12` as the molecule, how does the melting point read?
Its melting point is 181 to 183 °C.

For `Cc1nc2ccc(Cl)cc2cc1C(=O)O`, which melting point is on record?
Its melting point is 218 to 220 °C.

With `CC(C)(C(=O)O)c1cccc(Br)c1` as the molecule, how does the melting point read?
Its melting point is 68 to 70 °C.

Which melting point does the source give for `NC(=O)CCNC(=O)OCc1ccccc1` here?
Its melting point is 164 to 166 °C.

For `CC(O)C(NC(=O)C1CC1C)C(=O)O` (configuration not stated), which melting point is on record?
The melting point was 138 to 140 °C.

For `COC(=O)C1=NN(c2ccccc2)C(c2ccccc2)C1` (configuration not stated), which melting point is on record?
Its melting point is 125 to 127 °C.

With `CCCC(=O)Nc1cccc(N)c1C` as the molecule, how does the melting point read?
Its melting point is 106 to 108 °C.

For `CC(C)n1cnnc1S`, which melting point is on record?
Its melting point is 116 to 118 °C.

Which melting point does the source give for `O=C(O)c1cnn2cc(Br)cnc12` here?
The melting point was 199 to 201 °C.

With `O=C(O)C1(c2ccc3c(c2)OCCO3)CCCC1` as the molecule, how does the melting point read?
The melting point was 165 to 167 °C.

For `OCc1c[nH]c2ccc(Br)cc12`, which melting point is on record?
Its melting point is 112 to 114 °C.

For `COC(=O)c1cccc(-c2nn[nH]n2)c1`, which melting point is on record?
Its melting point is 189 to 191 °C.

Which melting point does the source give for `CCc1ccc(N)c(C(=O)O)c1` here?
Its melting point is 127 to 129 °C.

For `Cc1[nH]c(-c2cccnc2)nc(=NN)c1C`, which melting point is on record?
The melting point was 194 to 196 °C.

Which melting point does the source give for `Nc1ccc(-c2nc(C3CC3)no2)cc1Cl` here?
Its melting point is 97 to 99 °C.

With `Nc1cc2c(cc1N)OCCO2` as the molecule, how does the melting point read?
Its melting point is 124 to 126 °C.

Which melting point does the source give for `CS(=O)(=O)c1cc([N+](=O)[O-])c(Cl)s1` here?
The melting point was 148 to 150 °C.

For `CCOC(=O)c1cn2c(n1)NCCC2`, which melting point is on record?
The melting point was 171 to 173 °C.

For `COc1cc(CCl)ccc1SC`, which melting point is on record?
The melting point was 78 to 80 °C.

Which melting point does the source give for `O=C(O)CCOc1ccc(-c2ccccc2)cc1` here?
Its melting point is 174 to 176 °C.

For `NC(CC(=O)O)C1CCOCC1` (configuration not stated), which melting point is on record?
Its melting point is 228 to 230 °C.

For `CS(=O)(=O)Nc1ccc(S(N)(=O)=O)cc1F`, which melting point is on record?
Its melting point is 190 to 192 °C.

Which melting point does the source give for `CCc1sc(C(=O)O)cc1C` here?
The melting point was 98 to 100 °C.

For `O=C(O)CCCNCc1ccccn1`, which melting point is on record?
The melting point was 69 to 71 °C.

Which melting point does the source give for `O=C(O)CCc1ccc(F)cc1F` here?
The melting point was 108 to 110 °C.

For `NNC(=O)Cc1cc(=O)[nH]c(S)n1`, which melting point is on record?
Its melting point is 242 to 244 °C.

With `FC(F)Oc1ccc(CNC23CC4CC(CC(C4)C2)C3)cc1` as the molecule, how does the melting point read?
The melting point was 283 to 285 °C.

For `CCc1ccccc1OCC(=O)O`, which melting point is on record?
The melting point was 123 to 127 °C.

Which melting point does the source give for `Cc1ccc(C2(C)NC(=O)N(CC(=O)O)C2=O)cc1` (configuration not stated) here?
The melting point was 206 to 208 °C.

For `CC(C)(C)NS(=O)(=O)c1cc(C(=O)O)ccc1Cl`, which melting point is on record?
The melting point was 212 to 214 °C.

For `Nc1ncnc2ccccc12`, which melting point is on record?
Its melting point is 264 to 266 °C.

Which melting point does the source give for `O=C(O)CN1CC(=O)Nc2ccccc21` here?
The melting point was 218 to 220 °C.

Which melting point does the source give for `Nc1ccnn1Cc1ccc(Cl)c(F)c1` here?
The melting point was 68 to 70 °C.

For `Cc1cc(C(=O)CCC(=O)O)c(C)s1`, which melting point is on record?
Its melting point is 105 to 108 °C.

With `CCS(=O)(=O)NCC(=O)O` as the molecule, how does the melting point read?
Its melting point is 85 to 87 °C.

With `CC(C)(C)NC(=O)c1ccc(N)cc1` as the molecule, how does the melting point read?
Its melting point is 124 to 126 °C.

For `CC(C)(C)OC(=O)Cc1cccc(N)c1`, which melting point is on record?
The melting point was 47 to 49 °C.

With `NC(=O)c1c[nH]nc1-c1ccccc1` as the molecule, how does the melting point read?
The melting point was 187 to 189 °C.

With `CC(C)NS(=O)(=O)c1cccc(CN)c1` as the molecule, how does the melting point read?
The melting point was 98 to 100 °C.

With `CCN(CC)C(=O)c1cccc(O)c1` as the molecule, how does the melting point read?
The melting point was 80 to 82 °C.

With `O=C(O)C(Oc1ccc(F)cc1F)c1ccccc1` (configuration not stated) as the molecule, how does the melting point read?
The melting point was 96 to 98 °C.

With `OCc1ccc(Oc2ccc(Br)cc2)c(F)c1` as the molecule, how does the melting point read?
The melting point was 68 to 70 °C.

For `COc1cc(C#N)ccc1CBr`, which melting point is on record?
The melting point was 89 to 91 °C.

Which melting point does the source give for `O=C(O)CN1C(=O)CNC1=O` here?
Its melting point is 185 to 187 °C.

With `Cc1n[nH]c(-c2ccccc2N)n1` as the molecule, how does the melting point read?
The melting point was 153 to 155 °C.

Which melting point does the source give for `O=C(c1ccc(Br)cc1)c1ccco1` here?
Its melting point is 63 to 65 °C.

For `CCCCCCn1nc(C(=O)O)c2ccccc2c1=O`, which melting point is on record?
Its melting point is 124 to 126 °C.

Which melting point does the source give for `COc1ccc(N)cc1NC(=O)c1ccc(Cl)cc1F` here?
Its melting point is 140 to 142 °C.

Which melting point does the source give for `Cc1cc2n(n1)C(C(F)(F)F)CCN2` (configuration not stated) here?
Its melting point is 169 to 171 °C.

Which melting point does the source give for `CS(=O)(=O)c1ccc(F)cc1[N+](=O)[O-]` here?
Its melting point is 148 to 150 °C.

With `Nc1cc(S(=O)(=O)N2CCOCC2)ccc1Cl` as the molecule, how does the melting point read?
The melting point was 177 to 179 °C.
